In brackets after ≈: the same amount, converted by molar mass.
What was measured:
[1] = target: T1, recombinant human AChE (Homo sapiens, UniProt P22303); assay type: biochemical; conditions: recombinant human AChE; mean ± SEM; read-out: hAChE IC50
T1 construct: purchased Sigma-Aldrich, Milan, Italy
Method: Human and mouse acetylcholinesterase and human butyrylcholinesterase inhibition
assay. The inhibitory activity of the target compounds toward recombinant human AChE
(Sigma-Aldrich, Milan, Italy), recombinant mouse AChE (Bio-Techne, Milan, Italy) and
human serum BChE (Sigma-Aldrich, Milan, Italy) was assessed by Ellman’s method,8 using
Stock solutions of the AChEs were prepared by
dissolving enzyme lyophilized powder (hAChE) or diluting the enzyme commercial solution
(mAChE) in 0.1 M potassium phosphate (pH 8.0) containing 0.1% Triton X-100, whereas the
stock solution of hBChE was prepared in 0.1% aq. gelatin and the stock solutions of the
compounds to be tested were made in MeOH (2-4 mM). The assay solution consisted of 0.02
unit mL‒1 of the enzyme, 340 M 5,5’-dithiobis(2-nitrobenzoic acid), and 550 M of the
substrate acetylthiocholine iodide (for AChE assay) or butyrylthiocholine iodide (for BChE
assay) in 0.1 M potassium phosphate (pH 8.0). Blank solutions containing all components
except the enzymes were prepared to account for the non-enzymatic hydrolysis of the
Prior the addition of the substrate, the assay solutions were incubated at 37 °C for 20 min.
After the addition of the substrate, cuvettes were rapidly transferred into a Jasco V-530
double beam spectrophotometer equipped with thermostated cuvette holders (37 °C), in order
for 240 s. For each tested compound, five increasing concentrations were assayed in order to
achieve inhibition percentages of 20‒80%. Each concentration was assayed in triplicate. IC50
values were calculated from the inhibition plot (% inhibition vs log[inhibitor]) and are
expressed as mean ± SEM. Each IC50 value is the average of at least two experiments, each

[2] = Microsomal stability, human liver microsomes; assay type: in vitro ADME
Method: (§1) Microsomal stability screen. The microsomal stability of the target compounds was
(§2) determined at the Innopharma Drug Screening and Pharmacogenomics Platform (Santiago de

[3] = Microsomal stability, mouse liver microsomes; assay type: in vitro ADME
Method: as §1, §2

[4] = Microsomal stability, rat liver microsomes; assay type: in vitro ADME
Method: as §1, §2

[5] = tested on: hippocampus of SAMP8 mice; assay: Hippocampal gene expression of inflammatory markers by qPCR in SAMP8 mice; assay type: in vivo, mouse; conditions: 2 mg kg^–1 day^–1 oral, 4 weeks, vs control
Method: Compostela, Spain). The human, rat and mice pooled microsomes, with a protein content of 20 mg mL‒1, were purchased from Tebu-Xenotech. The compounds were incubated in a 96-well microplate at 37 °C with the microsomes in 50 mM phosphate buffer (pH = 7.4) containing as cofactors 30 mM MgCl2, 10 mM NADP, 100 mM glucose-6-phosphate and 40 […]
Samples (75 µL) were taken from each well at 0, 10, 20, 40 and 60 min and transferred to a microplate. 4 °C Acetonitrile (75 µL) and internal standard (rolipram) were then added for inactivating the microsomes, and water with 0.5% formic acid (30 µL) was subsequently added for improving the chromatographic conditions, keeping the mixtures at 4 °C. The plate was centrifuged at 46,000 g for 30 min at 15 °C and supernatants were taken and analyzed in a UPLC-MS/MS system (UPLC QSM Waters Acquity) using reverse phase Acquity UPLC® HSST3 1.7 μm (2.1 mm × 50 mm, Waters) as the stationary phase, 0.1% formic acid in water (A) / 0.1% formic acid in acetonitrile (B) as the mobile phase, a flow of 0.8 mL min‒1, and the […]
The metabolic stability of the compounds was calculated from the logarithm of the remaining compound at each of the time points studied.
In Vivo Proof-of-Concept of the Dual sEH / AChE Inhibitor […] in SAMP8 Mice Animals and treatment. The senescence-accelerated mouse-prone 8 (SAMP8) is an accelerated aging model established through phenotypic selection from AKR/J mice by […]
abnormal APP and β-amyloid processing and tau pathology, among others. Likewise, SAMP8 […]
and oxidative stress markers are present at early ages and during adultness.15 In this work, 5-month-old male SAMP8 mice were used to perform behavioral and molecular analyses.
Animals were randomly divided into SAMP8 control (n=8) and SAMP8 treated with 12c […]
(n=8, 2 mg kg‒1 day‒1). The animals had free access to food and water and were kept under standard temperature conditions (22 ± 2 °C) and 12-h/12-h light/dark cycles (300 lux/0 lux).
Compound 12c was dissolved in 1.8% (2-hydroxypropyl)-β-cyclodextrin (Sigma-Aldrich, St. […]

[6] = target: T2, recombinant mouse sEH (Mus musculus, UniProt P34914); conditions: read-out: msEH IC50, average of three replicates
T2 sequence (P34914 1-554): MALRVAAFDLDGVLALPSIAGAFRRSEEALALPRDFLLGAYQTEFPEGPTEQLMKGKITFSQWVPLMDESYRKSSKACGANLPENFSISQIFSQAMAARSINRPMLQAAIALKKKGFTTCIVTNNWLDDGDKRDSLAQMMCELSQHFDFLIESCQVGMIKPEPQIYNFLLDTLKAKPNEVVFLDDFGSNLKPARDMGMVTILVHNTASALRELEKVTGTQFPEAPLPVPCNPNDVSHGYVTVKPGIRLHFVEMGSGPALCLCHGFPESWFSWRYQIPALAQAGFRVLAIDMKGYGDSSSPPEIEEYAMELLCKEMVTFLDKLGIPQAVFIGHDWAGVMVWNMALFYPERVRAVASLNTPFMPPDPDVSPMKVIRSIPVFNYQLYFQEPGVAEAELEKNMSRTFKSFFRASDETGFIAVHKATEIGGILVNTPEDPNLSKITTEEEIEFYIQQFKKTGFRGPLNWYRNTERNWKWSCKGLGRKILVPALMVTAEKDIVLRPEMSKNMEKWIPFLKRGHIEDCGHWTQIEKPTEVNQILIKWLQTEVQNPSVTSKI
Method: Human and mouse soluble epoxide hydrolase inhibition assay. The inhibitory activity of
the target compounds toward human and mouse sEH was determined by a fluorescence-based
assay, using purified recombinant human or mouse sEH proteins and CMNPC as a fluorescent
substrate.6 The enzymes were incubated at 30 °C with the inhibitors ([I]final = 0.4-100,000
nM) for 5 min in 100 mM sodium phosphate buffer (200 µL, pH 7.4) containing 0.1 mg mL‒1
of BSA and 1% of DMSO. The substrate (CMNPC) was then added ([S]final = 5 µM). Activity
was assessed by measuring the appearance of the fluorescent 6-methoxynaphthaldehyde
(Molecular Devices). Results were obtained by regression analysis from a linear region of the
curve and are given as IC50 values, i.e., the concentration of the compound that reduces the
sEH activity by 50%. All measurements were performed in triplicate and the mean is

[7] = target: PAS of Electrophorus electricus AChE (EeAChE) (Electrophorus electricus, UniProt O42275); assay: Propidium displacement studies (PAS of AChE); assay type: binding; design: purchased Sigma-Aldrich type VI-S; conditions: mean ± SD of two independent experiments, read-out: KD (displacement of propidium from PAS)
Sequence of PAS of Electrophorus electricus AChE (EeAChE) (O42275 24-633): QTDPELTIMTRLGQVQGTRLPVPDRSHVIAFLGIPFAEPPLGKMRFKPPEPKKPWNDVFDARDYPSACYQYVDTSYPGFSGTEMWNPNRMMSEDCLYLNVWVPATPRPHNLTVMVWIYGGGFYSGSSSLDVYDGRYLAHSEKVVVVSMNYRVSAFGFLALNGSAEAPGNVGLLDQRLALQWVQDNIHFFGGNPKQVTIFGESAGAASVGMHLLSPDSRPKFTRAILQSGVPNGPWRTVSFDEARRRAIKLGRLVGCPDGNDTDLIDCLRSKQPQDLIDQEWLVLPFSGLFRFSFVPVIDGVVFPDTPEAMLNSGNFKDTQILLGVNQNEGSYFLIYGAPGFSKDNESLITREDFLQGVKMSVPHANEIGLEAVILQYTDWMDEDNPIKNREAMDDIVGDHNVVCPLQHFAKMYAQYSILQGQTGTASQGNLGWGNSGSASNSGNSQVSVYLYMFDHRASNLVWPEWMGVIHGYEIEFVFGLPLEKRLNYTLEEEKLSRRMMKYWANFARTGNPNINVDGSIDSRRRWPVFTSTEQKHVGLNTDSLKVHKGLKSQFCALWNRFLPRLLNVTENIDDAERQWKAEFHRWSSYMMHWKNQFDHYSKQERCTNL
Method: Propidium Displacement Studies.
electricus AChE (EeAChE) (type VI-S, Sigma-Aldrich) was determined using the PAS-
specific ligand propidium iodide (P) (Sigma-Aldrich), following a described procedure.9
Complexation of propidium iodide and AChE leads to a shift in the excitation wavelength.9
Fluorescence intensity was monitored with a Jasco 6200 spectrofluorometer (Jasco Europe,
Italy) using a 0.5 mL quartz cuvette at rt. EeAChE (2 μM) was first incubated with 8 mM
propidium iodide in 1 mM Tris-HCl, pH 8.0 at rt.
prepared in MeOH. In the back titration experiments of the propidium‒AChE complex by
fluorescence emission was determined. KD values were obtained after processing the raw data
values are expressed as mean ± standard deviation (SD) of two independent experiments.

[8] = PAMPA-BBB assay for brain permeability
Method: PAMPA-BBB assay for brain permeability. The brain permeability (Pe) of the target
compounds was assessed by an in vitro parallel artificial membrane permeability assay for
blood‒brain barrier penetration (PAMPA-BBB assay),12 which uses a lipid extract of porcine
brain membrane as a BBB model. The assay was validated by comparing experimental and
reported Pe values of a set of fourteen commercial drugs (Table S2 of the Supporting
On the basis of this equation and the limits established by Di et al. for BBB
independent experiments, each performed in triplicate, were carried out for each compound.

[9] = Kinetic aqueous solubility screen (light scattering); conditions: 1% DMSO / 99% PBS
Method: Aqueous solubility screen. The kinetic aqueous solubility of the target compounds was
as §2
Compostela, Spain). Ten mM stock solutions of the tested compounds were serially diluted,
NEPHELOstar Plus reader (BMG LABTECH). The results were adjusted to a segmented
linear regression to obtain the maximum concentration in which the compounds were soluble.

T1 sequence (P22303 32-614): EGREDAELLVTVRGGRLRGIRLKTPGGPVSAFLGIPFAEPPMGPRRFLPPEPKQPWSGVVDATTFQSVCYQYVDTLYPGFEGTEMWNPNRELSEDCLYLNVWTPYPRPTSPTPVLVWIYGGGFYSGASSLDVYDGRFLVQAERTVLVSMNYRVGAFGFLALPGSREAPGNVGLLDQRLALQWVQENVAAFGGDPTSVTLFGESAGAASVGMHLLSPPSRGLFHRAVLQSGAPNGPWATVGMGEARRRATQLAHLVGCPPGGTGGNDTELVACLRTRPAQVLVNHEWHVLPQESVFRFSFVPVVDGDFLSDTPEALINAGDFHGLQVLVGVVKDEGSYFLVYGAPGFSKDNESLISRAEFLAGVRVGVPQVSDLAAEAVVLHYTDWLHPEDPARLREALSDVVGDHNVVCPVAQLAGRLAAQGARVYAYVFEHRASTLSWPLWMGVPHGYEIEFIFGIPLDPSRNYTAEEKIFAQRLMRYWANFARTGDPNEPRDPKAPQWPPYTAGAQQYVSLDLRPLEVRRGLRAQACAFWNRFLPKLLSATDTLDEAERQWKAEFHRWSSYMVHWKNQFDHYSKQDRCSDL

Question: With `O=C(Nc1ccc(OC(F)(F)F)cc1)NC1CCN(C(=O)CCCCNc2c3c(nc4cc(Cl)ccc24)CCCC3)CC1` [12c, 1-{1-{5-[(6-Chloro-1,2,3,4-tetrahydroacridin-9-yl)amino]pentanoyl}piperidin-4-yl}-3-[4-(trifluoromethoxy)phenyl]urea] as the molecule, how does the IC50 [1] read?
Answer: The IC50 was 12.9 ± 1.6 nM.

Question: What about the “% compound remaining non-metabolized, human microsomes” value ([2]; after 10 min at 37 °C) of the same molecule?
Answer: Its value is 82%.

Question: What about the “% compound remaining non-metabolized, human microsomes” value ([2]; after 20 min at 37 °C) of the same molecule?
Answer: The value was 74%.

Question: What about the microsomal CLint at 1 h ([2]; human, liver microsomes (pooled), pH 7.4, 37 °C) of the same molecule?
Answer: Its microsomal CLint at 1 h is 8 µL/min/mg.

Question: What about the half-life at 1 h ([2]; human, liver microsomes (pooled), pH 7.4, 37 °C, read-out: t1/2, human microsomes) of the same molecule?
Answer: Its half-life at 1 h is 91 min.

Question: What about the remaining at 1 h ([2]; human, liver microsomes (pooled), pH 7.4, after 1 h of incubation at 37 °C, read-out: % remaining compound, human microsomes) of the same molecule?
Answer: The remaining at 1 h was 55%.

Question: What about the “amount of compound, mouse liver microsomes” value ([3]; after 10 min) of the same molecule?
Answer: The value was 38%.

Question: What about the “amount of compound, mouse liver microsomes” value ([3]; after 20 min) of the same molecule?
Answer: The value was 4%.

Question: And the microsomal CLint at 1 h, 0.05 µM ([3]; mouse, liver microsomes (pooled), pH 7.4, 37 °C)?
Answer: The microsomal CLint at 1 h, 0.05 µM was 155 µL/min/mg.

Question: What about the half-life at 1 h, 0.05 µM ([3]; mouse, liver microsomes (pooled), pH 7.4, 37 °C, read-out: t1/2, mouse microsomes) of the same molecule?
Answer: The half-life at 1 h, 0.05 µM was 4 min.

Question: And the remaining at 1 h, 0.05 µM ([3]; mouse, liver microsomes (pooled), pH 7.4, after 1 h of incubation at 37 °C, read-out: % remaining compound, mouse microsomes)?
Answer: Its remaining at 1 h, 0.05 µM is 2%.

Question: What about the “% compound remaining unaltered, rat microsomes” value (“% compound remaining unaltered” below) ([4]; after 10 min) of the same molecule?
Answer: The value was 100%.

Question: What about the “% compound remaining unaltered” value ([4]; after 20 min) of the same molecule?
Answer: Its value is 79%.

Question: And the “% compound remaining unaltered” value ([4]; after 40 min)?
Answer: The value was 50%.

Question: What about the microsomal CLint at 1 h, 0.05 µM ([4]; rat, liver microsomes (pooled), pH 7.4, 37 °C) of the same molecule?
Answer: Its microsomal CLint at 1 h, 0.05 µM is 26 µL/min/mg.

Question: What about the half-life at 1 h, 0.05 µM ([4]; rat, liver microsomes (pooled), pH 7.4, 37 °C, read-out: t1/2, rat microsomes) of the same molecule?
Answer: The half-life at 1 h, 0.05 µM was 26 min.

Question: And the remaining at 1 h, 0.05 µM ([4]; rat, liver microsomes (pooled), pH 7.4, after 1 h of incubation at 37 °C, read-out: % remaining compound, rat microsomes)?
Answer: The remaining at 1 h, 0.05 µM was 21%.

Question: And the Gfap gene expression [5]?
Answer: The Gfap gene expression was “tendency toward reduced gene expression”.

Question: And the Il-1β gene expression [5]?
Answer: The Il-1β gene expression was “tendency toward reduced gene expression”.

Question: What about the Il-6 gene expression [5] of the same molecule?
Answer: Its Il-6 gene expression is “significant reduction”.

Question: And the IC50 [6]?
Answer: Its IC50 is 22.5 nM.

Question: And the Kd [7]?
Answer: The Kd was 3950 ± 350 nM.

Question: What about the BBB permeation class ([8]; PAMPA-BBB prediction) of the same molecule?
Answer: The BBB permeation class was “CNS+ (High permeation, CNS+: Pe > 5.2)”.

Question: And the Papp ([8]; pig, PAMPA)?
Answer: The Papp was 8.4 ± 0.7 ×10⁻⁶ cm/s.

Question: And the solubility at 2 h [9]?
Answer: Its solubility at 2 h is 7.5 µM (≈ 4.64 µg/mL).

— paper PMC8958510 (Journal of Medicinal Chemistry, 2022)
